Laboratory results reported in patent publication US6160004A, “C-10 carbon-substituted artemisinin-like trioxane compounds having antimalarial, antiproliferative and antitumor activities” (priority 1998, dated 2000).
Values after ≈ are worked out from the molar mass of the structure shown. Where two headings read alike, the source gives them in different places.

Legend:
[1] = Water solubility at pH 7.4; format: physicochemical; conditions: pH 7.4, water
Procedure: Often, solubility in water is a desirable feature of a new drug candidate. Since organic compounds bearing one or more carboxylic acid groups or phenolic groups are usually water soluble at physiological pH, we have prepared a series of 10-carbon-substituted trioxane carboxylic acids via alkene oxidation and ester saponification. Also, bisphenol (34) was prepared by hydrolysis of the corresponding bis-silyl ether.

[2] = tested on: murine keratinocyte cell line PE; assay: Growth inhibition of murine keratinocytes (MTT); format: cell-based, murine (SENCAR mice); conditions: 100 nanomolar
Procedure: To determine the inhibitory effect of the compositions of the present invention on cell proliferation, screening assays were performed on a murine keratinocyte cell line PE. Cell line PE was chosen for its particular sensitivity to the induction of ornithine decarboxylase (ODC) activity by the extensively characterized tumor promoter TPA. […] PE cell culture medium consisted of Eagle's minimal essential medium without calcium chloride (Whittaker Bioproducts, Walkersville, Mass.) supplemented with 8% chelexed fetal calf serum and 1% antibiotic-antimycotic (Gibco BRL) and the addition of CaCl2 to 0.05 mM Ca^++.
MTT [3-(4,5-dimethylthiazol-2-yl)-2,5-diphenyltetraxolium bromide] was purchased from Sigma Chemical Co. (St. Louis, Mo.), and TPA was supplied by L.C. Services (Woburn, Mass.). L-[^14 C]omithine (56 μCi/mol) was from Amersham/Searle Corp. (Arlington Heights, Ill.). Chemical solvents used in all assays of biological activity were of the highest grade commercially available.
Growth Inhibition. Growth curves, shown in FIGS. 1-5, for PE cells treated with calcitriol and the C-10 carbon-substituted dimers 38, 39, 43, 44, 45, 47 and 48, and monomer 27 generated by assay for the reduction of the tetrazolium-based compound MTT, see Charmichael, et al., Cancer Res., 47:936-942 (1987). […] PE cells were seeded at a density of 5,000 cells/well in 50 μL of medium into 96-well microtiter plates. Twelve hours later, the medium was removed, and cells were treated with 100 μL of fresh medium into which the appropriate amount of calcitriol or analog dissolved in dimethyl sulfoxide (DMSO) had been added, with the concentration of DMSO held constant at 0.1%. […] At 24-hour intervals following the initial treatment of the cells with compounds, 0.1 mg (50 μL of a 2 mg/mL solution) of MTT was added to each well. After 4 hours, the MTT was removed and DMSO added to dissolve the blue formazan dye. Using a microtiter plate reader, the A505 was then determined and cell number calculated from blank-subtracted absorbance values.

[3] = tested on: chloroquine-sensitive P. falciparum (NF54); assay: In vitro antimalarial activity ([3H]hypoxanthine incorporation); format: cell-based
[4] = Stability (hydrolysis); format: physicochemical
[5] = In vivo acute toxicity testing; conditions: preliminary
[6] = tested on: malaria; assay: In vivo antimalarial activity; parameters: species or system rodents
[7] = tested on: P. berghei; conditions: cited from earlier work
[8] = tested on: Ehrlich ascites tumor (EAT) cells; conditions: cited from earlier work
[9] = Plasmodium falciparum, chloroquine-sensitive P. falciparum NF54, in vitro
[10] = sc; read-out: ED50 subcutaneous
[11] = sc; read-out: ED90 subcutaneous

C[C@H]1[C@H](c2ccc(O)cc2O)O[C@@H]2O[C@@]3(C)CC[C@H]4[C@H](C)CC[C@@H]1[C@@]24OO3 [Monomer 13d]
solubility [1]: < 3 mM

CC1CCC2C(C)C(c3ccc(C4OC5OC6(C)CCC7C(C)CCC(C4C)C57OO6)o3)OC3OC4(C)CCC1C32OO4 (stereo not drawn) [Dimer 47]
antiproliferative activity relative to calcitriol [2]: at least as antiproliferative as calcitriol

CCOC(=O)Cn1cccc1[C@@H]1O[C@@H]2O[C@@]3(C)CC[C@H]4[C@H](C)CC[C@@H]([C@H]1C)[C@@]24OO3 [Monomer 16d, 10α-(1'-(Ethoxycarbonylmethyl)pyrrol-2'-yl)-10-deoxoartemisinin]
IC50 [3, 9]: 9.1 nM

C=CCOc1ccc([C@@H]2O[C@@H]3O[C@@]4(C)CC[C@H]5[C@H](C)CC[C@@H]([C@H]2C)[C@@]35OO4)c(OCC=C)c1 [Monomer 13b]
IC50 [3, 9]: 6.6 nM

Cc1ccc([C@@H]2O[C@@H]3O[C@@]4(C)CC[C@H]5[C@H](C)CC[C@@H]([C@H]2C)[C@@]35OO4)o1 [Monomer 17b]
stability [4]: Hydrolytically stable
in vivo acute toxicity testing [5]: relative safety
ED50 ([6]; po; read-out: ED50 oral): 15.5 mg/kg
ED90 ([6]; po; read-out: ED90 oral): 43 mg/kg
ED50 [6, 10]: 0.9 mg/kg
ED90 [6, 11]: 2 mg/kg
IC50 [3, 9]: 5.2 nM

CC1CCC2C(C)C(c3cn(C)c4ccccc34)OC3OC4(C)CCC1C32OO4 (stereo not drawn) [Monomer 19]
IC50 [3, 9]: 4 nM

CCN(CC)CCCC(C)Nc1ccnc2cc(Cl)ccc12 (stereo not drawn) [Chloroquine, reference compound]
ED50 ([6]; sc, read-out: ED50 subcutaneous): 1.8 mg/kg
ED90 ([6]; sc, read-out: ED90 subcutaneous): 3.1 mg/kg

COc1ccc([C@@H]2O[C@@H]3O[C@@]4(C)CC[C@H]5[C@H](C)CC[C@@H]([C@H]2C)[C@@]35OO4)c(OC)c1 [Monomer 13]
IC50 ([3]; survey data (preliminary), P. falciparum NF54): 8.9 nM

COc1cc(OC)c([C@@H]2O[C@@H]3O[C@@]4(C)CC[C@H]5[C@H](C)CC[C@@H]([C@H]2C)[C@@]35OO4)c(OC)c1 [Monomer 14]
IC50 [3, 9]: 7.8 nM

CO[C@H]1O[C@@H]2O[C@@]3(C)CC[C@H]4[C@H](C)CC[C@@H]([C@H]1C)[C@@]24OO3 [Artemether, reference compound]
in vitro antimalarial potency relative to artemisinin ([3]; P. falciparum NF54): more potent than artemisinin

COc1ccc2cc(C3OC4OC5(C)CCC6C(C)CCC(C3C)C46OO5)c(OC)cc2c1 (stereo not drawn) [Monomer 15, 10α-(2',7'-dimethoxynaphth-3'-yl)deoxoartemisinin]
IC50 [3, 9]: 9 nM

CC1CCC2C(C)C(c3ccc(C(c4ccccc4)c4ccc(C5OC6OC7(C)CCC8C(C)CCC(C5C)C68OO7)n4C)n3C)OC3OC4(C)CCC1C32OO4 (stereo not drawn) [Dimer 48]
antiproliferative activity relative to calcitriol [2]: at least as antiproliferative as calcitriol

CC1=CO[C@@H]2O[C@@]3(C)CC[C@H]4[C@H](C)CC[C@@H]1[C@@]24OO3 [olefinic compound III]
activity against P. berghei-infected mice [7]: inactive

CC1CCC2C(C)C(C(=O)O)OC3OC4(C)CCC1C32OO4 (stereo not drawn) [Monomer 33]
solubility [1]: 30 mM (≈ 9370 µg/mL)

CC1CCC2C(C)C(C#Cc3ccc(C#CC4OC5OC6(C)CCC7C(C)CCC(C4C)C57OO6)cc3)OC3OC4(C)CCC1C32OO4 (stereo not drawn) [Dimer 45, C-10 p-Diethynylbenzene 10-deoxoartemisinin Dimer]
antiproliferative activity relative to calcitriol [2]: at least as antiproliferative as calcitriol

COc1cc(OC)c(C2OC3OC4(C)CCC5C(C)CCC(C2C)C35OO4)cc1C1OC2OC3(C)CCC4C(C)CCC(C1C)C24OO3 (stereo not drawn) [Dimer 43]
antiproliferative activity relative to calcitriol [2]: at least as antiproliferative as calcitriol

C[C@H]1[C@H](c2cccn2Cc2ccccc2)O[C@@H]2O[C@@]3(C)CC[C@H]4[C@H](C)CC[C@@H]1[C@@]24OO3 [Monomer 16b]
IC50 [3, 9]: 16 nM

CC1CCC2C(C)C(c3cccn3C)OC3OC4(C)CCC1C32OO4 (stereo not drawn) [Monomer 16a, 10α-(N-methylpyrrol-2'-yl)deoxoartemisinin]
stability [4]: Hydrolytically stable
ED50 ([6]; po; read-out: ED50 oral): 4.5 mg/kg
ED90 ([6]; po; read-out: ED90 oral): 8.5 mg/kg
ED50 [6, 10]: 0.7 mg/kg
ED90 [6, 11]: 1.2 mg/kg
in vitro antimalarial potency relative to artemisinin ([3]; P. falciparum NF54): more potent than artemisinin
IC50 [3, 9]: 4.6 nM

COc1ccc(C2OC3OC4(C)CCC5C(C)CCC(C2C)C35OO4)c(OC)c1 (stereo not drawn) [Monomer 13a, 10α-(1',3'-Dimethoxyphenyl)deoxoartemisininin]
in vitro antimalarial potency relative to artemisinin ([3]; P. falciparum NF54): more potent than artemisinin
IC50 [3, 9]: 4.2 nM

CC1CCC2C(C)C(c3ccco3)OC3OC4(C)CCC1C32OO4 (stereo not drawn) [Monomer 17a, 10α-(2'-Furyl)-10-deoxoartemisinin]
stability [4]: Hydrolytically stable
in vivo acute toxicity testing [5]: relative safety
ED50 ([6]; po; read-out: ED50 oral): 9.5 mg/kg
ED90 ([6]; po; read-out: ED90 oral): 24 mg/kg
ED50 [6, 10]: 1.2 mg/kg
ED90 [6, 11]: 2 mg/kg
in vitro antimalarial potency relative to artemisinin ([3]; P. falciparum NF54): more potent than artemisinin
IC50 [3, 9]: 1.4 nM

CC1CCC2C(C)C(C#Cc3cccc(C#CC4OC5OC6(C)CCC7C(C)CCC(C4C)C57OO6)c3)OC3OC4(C)CCC1C32OO4 (stereo not drawn) [Dimer 44]
antiproliferative activity relative to calcitriol [2]: at least as antiproliferative as calcitriol

C[C@@H]1CC[C@H]2[C@@H](C)C(OC3O[C@@H]4O[C@@]5(C)CC[C@H]6[C@H](C)CC[C@@H]([C@H]3C)[C@@]46OO5)O[C@@H]3O[C@@]4(C)CC[C@@H]1[C@]32OO4 (stereo partly drawn) [II-7]
SD90 ([7]; P. berghei-infected mice, parasitemia 90 percent suppressed): 10 mg/kg
in vivo potency relative to artemisinin ([7]; P. berghei-infected mice): less potent than artemisinin
IC50 ([8]; MTT, growth inhibition): 1400 nM
cytotoxicity relative to artemisinin (times more cytotoxic) [8]: approximately twenty-two
cytotoxicity relative to dihydroartemisinin (times more cytotoxic) [8]: sixty

CC1CCC2C(C)C(c3cccn3CC(=O)O)OC3OC4(C)CCC1C32OO4 (stereo not drawn) [Monomer 16e]
solubility [1]: 10 mM (≈ 3910 µg/mL)

C[C@H]1[C@H](c2ccc(C(C)(C)C)o2)O[C@@H]2O[C@@]3(C)CC[C@H]4[C@H](C)CC[C@@H]1[C@@]24OO3 [Monomer 17d]
IC50 [3, 9]: 10 nM

CCc1ccc([C@@H]2O[C@@H]3O[C@@]4(C)CC[C@H]5[C@H](C)CC[C@@H]([C@H]2C)[C@@]35OO4)o1 [Monomer 17c]
IC50 [3, 9]: 8.6 nM

C[C@H]1[C@H](c2cccs2)O[C@@H]2O[C@@]3(C)CC[C@H]4[C@H](C)CC[C@@H]1[C@@]24OO3 [Monomer 18]
IC50 [3, 9]: 5.1 nM
